According to ChEMBL document CHEMBL3526082, “Identification of metabolites of ganoderic acid D by ultra-performance liquid chromatography/quadrupole time-of-flight mass spectrometry” (Drug Metab Dispos, 2012):
pIC50: −log10 of the molar value.

Experiments:
[1] = Drug excretion in Sprague-Dawley rat bile assessed as (6R)-6-((5R,7S,10S,13R,14R,17R)-2,7-dihydroxy-4,4,10,13,14-pentamethyl-3,11,15-trioxo-2,3,4,5,6,7,10,11,12,13,14,15,16,17-tetradecahydro-1H-cyclopenta[a]phenanthren-17-yl)-2-methyl-4-oxoheptanoic acid level at 10 mg/kg, po after 12 hrs by UPLC/Q-TOF analysis; assay type: ADME, organism-based; parameters: dose 10 mg/kg, route oral; conditions: in vivo
[2] = Drug excretion in Sprague-Dawley rat bile assessed as (6R)-6-((5R,7S,10S,13R,14R)-7-hydroxy-4-(hydroxymethyl)-4,10,13,14-tetramethyl-3,11,15-trioxo-2,3,4,5,6,7,10,11,12,13,14,15-dodecahydro-1H-cyclopenta[a]phenanthren-17-yl)-2-methyl-4-oxoheptanoic acid level at 10 mg/kg, po after 12 hrs by UPLC/Q-TOF analysis; assay type: ADME, organism-based; parameters: dose 10 mg/kg, route oral; conditions: in vivo
[3] = Drug excretion in Sprague-Dawley rat bile assessed as (6R)-6-((5R,7S,10S,13R,14R,17R)-2,7-dihydroxy-4-(hydroxymethyl)-4,10,13,14-tetramethyl-3,11,15-trioxo-2,3,4,5,6,7,10,11,12,13,14,15,16,17-tetradecahydro-1H-cyclopenta[a]phenanthren-17-yl)-2-methyl-4-oxoheptanoic acid level at 10 mg/kg, po after 12 hrs by UPLC/Q-TOF analysis; assay type: ADME, organism-based; parameters: dose 10 mg/kg, route oral; conditions: in vivo
[4] = tested on: Rattus norvegicus; experiment: Drug metabolism in Sprague-Dawley rat plasma assessed as 3,7(S)-dihydroxy-11,15,23-trioxolanost-8-en-26-oic acid level at 10 mg/kg, po by UPLC/Q-TOF analysis; assay type: ADME, organism-based; parameters: dose 10 mg/kg, route oral; conditions: in vivo
[5] = Drug excretion in Sprague-Dawley rat urine assessed as parent compound at 10 mg/kg, po by UPLC/Q-TOF analysis; assay type: ADME, organism-based; parameters: dose 10 mg/kg, route oral; conditions: in vivo
[6] = Drug excretion in Sprague-Dawley rat urine assessed as metabolite level at 10 mg/kg, po by UPLC/Q-TOF analysis; assay type: ADME, organism-based; parameters: dose 10 mg/kg, route oral; conditions: in vivo
[7] = tested on: Liver microsome; experiment: Drug metabolism in Sprague-Dawley rat liver microsomes assessed as 3,7(S)-dihydroxy-11,15,23-trioxolanost-8-en-26-oic acid formation at 100 uM after 1 hr by UPLC/Q-TOF analysis; assay type: ADME
[8] = tested on: Liver microsome; experiment: Drug metabolism in Sprague-Dawley rat liver microsomes assessed as (6R)-6-((5R,7S,10S,13R,14R,17R)-2,7-dihydroxy-4,4,10,13,14-pentamethyl-3,11,15-trioxo-2,3,4,5,6,7,10,11,12,13,14,15,16,17-tetradecahydro-1H-cyclopenta[a]phenanthren-17-yl)-2-methyl-4-oxoheptanoic acid formation at 100 uM after 1 hr by UPLC/Q-TOF analysis; assay type: ADME
[9] = Drug excretion in Sprague-Dawley rat bile assessed as (6R)-6-((5R,7S,10S,13R,14R,17R)-2,7-dihydroxy-4,4,10,13,14-pentamethyl-3,11,15-trioxo-2,3,4,5,6,7,10,11,12,13,14,15,16,17-tetradecahydro-1H-cyclopenta[a]phenanthren-17-yl)-2-hydroxy-2-methyl-4-oxoheptanoic acid level at 10 mg/kg, po after 12 hrs by UPLC/Q-TOF analysis; assay type: ADME, organism-based; parameters: dose 10 mg/kg, route oral; conditions: in vivo
[10] = Drug excretion in Sprague-Dawley rat bile assessed as (6R)-6-((5R,7S,10S,13R,14R,17R)-7-hydroxy-4,4,10,13,14-pentamethyl-3,11,15-trioxo-2,3,4,5,6,7,10,11,12,13,14,15,16,17-tetradecahydro-1H-cyclopenta[a]phenanthren-17-yl)-2-(hydroxymethyl)-4-oxoheptanoic acid level at 10 mg/kg, po after 12 hrs by UPLC/Q-TOF analysis; assay type: ADME, organism-based; parameters: dose 10 mg/kg, route oral; conditions: in vivo
[11] = Retention time of the compound in Sprague-Dawley rat bile by UPLC/Q-TOF analysis; assay type: ADME
[12] = Drug excretion in Sprague-Dawley rat bile assessed as 7(S) -hydroxy-11,15,23-trioxo-3-sulfooxylanost-8-en-26-oic acid level at 10 mg/kg, po after 12 hrs by UPLC/Q-TOF analysis; assay type: ADME, organism-based; parameters: dose 10 mg/kg, route oral; conditions: in vivo
[13] = tested on: Liver microsome; experiment: Drug metabolism in Sprague-Dawley rat liver microsomes assessed as (6R)-6-((5R,7S,10S,13R,14R,17R)-2,7-dihydroxy-4-(hydroxymethyl)-4,10,13,14-tetramethyl-3,11,15-trioxo-2,3,4,5,6,7,10,11,12,13,14,15,16,17-tetradecahydro-1H-cyclopenta[a]phenanthren-17-yl)-2-methyl-4-oxoheptanoic acid formation at 100 uM after 1 hr by UPLC/Q-TOF analysis; assay type: ADME
[14] = Drug excretion in Sprague-Dawley rat bile assessed as (6R)-6-((5R,7S,10S,13R,14R,17R)-2,7-dihydroxy-4,4,10,13,14-pentamethyl-3,11,15-trioxo-2,3,4,5,6,7,10,11,12,13,14,15,16,17-tetradecahydro-1H-cyclopenta[a]phenanthren-17-yl)-2-(hydroxymethyl)-4-oxoheptanoic acid level at 10 mg/kg, po after 12 hrs by UPLC/Q-TOF analysis; assay type: ADME, organism-based; parameters: dose 10 mg/kg, route oral; conditions: in vivo
[15] = Drug excretion in Sprague-Dawley rat bile assessed as (6R)-6-((5R,7S,10S,13R,14R)-3,7-dihydroxy-4,4,10,13,14-pentamethyl-11,15-dioxo-2,3,4,5,6,7,10,11,12,13,14,15-dodecahydro-1H-cyclopenta[a]phenanthren-17-yl)-2-methyl-4-oxoheptanoic acid level at 10 mg/kg, po after 12 hrs by UPLC/Q-TOF analysis; assay type: ADME, organism-based; parameters: dose 10 mg/kg, route oral; conditions: in vivo
[16] = Drug excretion in Sprague-Dawley rat bile assessed as 3,7(S)-dihydroxy-11,15,23-trioxolanost-8-en-26-oic acid level at 10 mg/kg, po after 12 hrs by UPLC/Q-TOF analysis; assay type: ADME, organism-based; parameters: dose 10 mg/kg, route oral; conditions: in vivo
[17] = Drug excretion in Sprague-Dawley rat bile assessed as 3,7,11,15,23-pentaoxolanost-8-en-26-oic acid level at 10 mg/kg, po after 12 hrs by UPLC/Q-TOF analysis; assay type: ADME, organism-based; parameters: dose 10 mg/kg, route oral; conditions: in vivo
[18] = Drug excretion in Sprague-Dawley rat bile assessed as (6R)-6-((5R,7S,10S,13R,14R,17R)-2,7-dihydroxy-4-(hydroxymethyl)-4,10,13,14-tetramethyl-3,11,15-trioxo-2,3,4,5,6,7,10,11,12,13,14,15,16,17-tetradecahydro-1H-cyclopenta[a]phenanthren-17-yl)-2-hydroxy-2-methyl-4-oxoheptanoic acid level at 10 mg/kg, po after 12 hrs by UPLC/Q-TOF analysis; assay type: ADME, organism-based; parameters: dose 10 mg/kg, route oral; conditions: in vivo
[19] = tested on: HeLa; experiment: Antiproliferative activity against human HeLa cells assessed as inhibition of cell proliferation after 48 hrs; assay type: functional, cell-based
[20] = tested on: Plasma; experiment: Drug level in Sprague-Dawley rat plasma at 10 mg/kg, po by UPLC/Q-TOF analysis; assay type: ADME, organism-based; parameters: dose 10 mg/kg, route oral; conditions: in vivo
[21] = Drug excretion in Sprague-Dawley rat bile assessed as (6R)-2-hydroxy-6-((5R,7S,10S,13R,14R,17R)-7-hydroxy-4-(hydroxymethyl)-4,10,13,14-tetramethyl-3,11,15-trioxo-2,3,4,5,6,7,10,11,12,13,14,15,16,17-tetradecahydro-1H-cyclopenta[a]phenanthren-17-yl)-2-methyl-4-oxoheptanoic acid level at 10 mg/kg, po after 12 hrs by UPLC/Q-TOF analysis; assay type: ADME, organism-based; parameters: dose 10 mg/kg, route oral; conditions: in vivo
[22] = Drug excretion in Sprague-Dawley rat bile assessed as (6R)-2-hydroxy-6-((5R,7S,10S,13R,14R,17R)-7-hydroxy-4,4,10,13,14-pentamethyl-3,11,15-trioxo-2,3,4,5,6,7,10,11,12,13,14,15,16,17-tetradecahydro-1H-cyclopenta[a]phenanthren-17-yl)-2-methyl-4-oxoheptanoic acid level at 10 mg/kg, po after 12 hrs by UPLC/Q-TOF analysis; assay type: ADME, organism-based; parameters: dose 10 mg/kg, route oral; conditions: in vivo
[23] = tested on: Plasma; experiment: Drug level in Sprague-Dawley rat plasma treated with ganoderic acid D at 10 mg/kg, po by UPLC/Q-TOF analysis; assay type: ADME, organism-based; parameters: dose 10 mg/kg, route oral; conditions: in vivo
[24] = tested on: Liver microsome; experiment: Drug level in Sprague-Dawley rat liver microsomes assessed as compound formation treated with ganoderic acid D at 100 uM after 1 hr by UPLC/Q-TOF analysis; assay type: ADME
[25] = Drug excretion in Sprague-Dawley rat bile treated with ganoderic acid D at 10 mg/kg, po after 12 hrs by UPLC/Q-TOF analysis; assay type: ADME, organism-based; parameters: dose 10 mg/kg, route oral; conditions: in vivo

SMILES: CC(CC(=O)CC(C)[C@H]1CC(=O)[C@@]2(C)C3=C(C(=O)C[C@]12C)[C@@]1(C)CCC(=O)C(C)(C)[C@@H]1C[C@@H]3O)C(=O)O (some centres not stated)
- Drug excretion [1]: metabolite_detected
- Drug excretion [2]: metabolite_detected
- Drug excretion [3]: metabolite_detected
- Drug metabolism [4]: metabolite_detected
- Drug excretion [5]: metabolite_not_detected
- Drug excretion [6]: metabolite_not_detected
- Drug metabolism [7]: metabolite_detected
- Drug metabolism [8]: metabolite_detected
- Drug excretion [9]: metabolite_detected
- Drug excretion [10]: metabolite_detected
- Retention_time [11]: 11.3 min
- Drug excretion [12]: metabolite_detected
- Drug metabolism [13]: metabolite_detected
- Drug excretion [14]: metabolite_detected
- Drug excretion [15]: metabolite_detected
- Drug excretion [16]: metabolite_detected
- Drug excretion [17]: metabolite_detected
- Drug excretion [18]: metabolite_detected
- pIC50 [19]: 4.76
- Drug uptake [20]: Active
- Drug excretion [21]: metabolite_detected
- Drug excretion [22]: metabolite_detected
- Drug metabolism [23]: metabolite_detected

SMILES: CC(CC(=O)CC(C)[C@H]1CC(=O)[C@@]2(C)C3=C(C(=O)C[C@]12C)[C@@]1(C)CCC(O)C(C)(C)[C@@H]1C[C@@H]3O)C(=O)O (some centres not stated)
- Drug metabolism [24]: metabolite_detected
- Retention_time [11]: 9.9 min
- Drug excretion [25]: metabolite_detected

SMILES: CC(CC(=O)CC(C)[C@H]1CC(=O)[C@@]2(C)C3=C(C(=O)C[C@]12C)[C@@]1(C)CCC(=O)C(C)(C)[C@@H]1CC3=O)C(=O)O (some centres not stated)
- Retention_time [11]: 11.5 min
- Drug excretion [25]: metabolite_detected

SMILES: CC(CC(=O)CC(C)C1=CC(=O)[C@@]2(C)C3=C(C(=O)C[C@]12C)[C@@]1(C)CCC(=O)C(C)(C)[C@@H]1C[C@@H]3O)C(=O)O (some centres not stated)
- Retention_time [11]: 11.9 min
- Drug excretion [25]: metabolite_detected

SMILES: CC(CC(=O)CC(C)(O)C(=O)O)[C@H]1CC(=O)[C@@]2(C)C3=C(C(=O)C[C@]12C)[C@@]1(C)CCC(=O)C(C)(C)[C@@H]1C[C@@H]3O (some centres not stated)
- Retention_time [11]: 10 min
- Drug excretion [25]: metabolite_detected

SMILES: CC(CC(=O)CC(CO)C(=O)O)[C@H]1CC(=O)[C@@]2(C)C3=C(C(=O)C[C@]12C)[C@@]1(C)CCC(=O)C(C)(C)[C@@H]1C[C@@H]3O (some centres not stated)
- Retention_time [11]: 9.8 min
- Drug excretion [25]: metabolite_detected

SMILES: CC(CC(=O)CC(C)[C@H]1CC(=O)[C@@]2(C)C3=C(C(=O)C[C@]12C)[C@@]1(C)CC(O)C(=O)C(C)(C)[C@@H]1C[C@@H]3O)C(=O)O (some centres not stated)
- Drug metabolism [24]: metabolite_detected
- Retention_time [11]: 9.5 min
- Drug excretion [25]: metabolite_detected

SMILES: CC(CC(=O)CC(C)[C@H]1CC(=O)[C@@]2(C)C3=C(C(=O)C[C@]12C)[C@@]1(C)CCC(=O)C(C)(CO)[C@@H]1C[C@@H]3O)C(=O)O (some centres not stated)
- Retention_time [11]: 9.2 min
- Drug excretion [25]: metabolite_detected

SMILES: CC(CC(=O)CC(C)(O)C(=O)O)[C@H]1CC(=O)[C@@]2(C)C3=C(C(=O)C[C@]12C)[C@@]1(C)CC(O)C(=O)C(C)(C)[C@@H]1C[C@@H]3O (some centres not stated)
- Retention_time [11]: 8.2 min
- Drug excretion [25]: metabolite_detected

SMILES: CC(CC(=O)CC(CO)C(=O)O)[C@H]1CC(=O)[C@@]2(C)C3=C(C(=O)C[C@]12C)[C@@]1(C)CC(O)C(=O)C(C)(C)[C@@H]1C[C@@H]3O (some centres not stated)
- Retention_time [11]: 8 min
- Drug excretion [25]: metabolite_detected

SMILES: CC(CC(=O)CC(C)(O)C(=O)O)[C@H]1CC(=O)[C@@]2(C)C3=C(C(=O)C[C@]12C)[C@@]1(C)CCC(=O)C(C)(CO)[C@@H]1C[C@@H]3O (some centres not stated)
- Retention_time [11]: 7.5 min
- Drug excretion [25]: metabolite_detected

SMILES: CC(CC(=O)CC(C)[C@H]1CC(=O)[C@@]2(C)C3=C(C(=O)C[C@]12C)[C@@]1(C)CC(O)C(=O)C(C)(CO)[C@@H]1C[C@@H]3O)C(=O)O (some centres not stated)
- Drug metabolism [24]: metabolite_detected
- Retention_time [11]: 7.3 min
- Drug excretion [25]: metabolite_detected

SMILES: CC(CC(=O)CC(C)(O)C(=O)O)[C@H]1CC(=O)[C@@]2(C)C3=C(C(=O)C[C@]12C)[C@@]1(C)CC(O)C(=O)C(C)(CO)[C@@H]1C[C@@H]3O (some centres not stated)
- Retention_time [11]: 5.9 min
- Drug excretion [25]: metabolite_detected

SMILES: CC(CC(=O)CC(C)[C@H]1CC(=O)[C@@]2(C)C3=C(C(=O)C[C@]12C)[C@@]1(C)CCC(OS(=O)(=O)O)C(C)(C)[C@@H]1C[C@@H]3O)C(=O)O (some centres not stated)
- Retention_time [11]: 8.5 min
- Drug excretion [25]: metabolite_detected
